From patent US11377441B2, “Covalent inhibitors of KRAS” (Araxes Pharma LLC, priority 2017, dated 2022)

Target: T1, KRAS G12C 1-169, his-tagged protein, GDP-loaded (Homo sapiens, UniProt P01116, G12C)
T1 construct: KRAS G12C 1-169, his-tagged protein, GDP-loaded
Assay: Biochemical assay: covalent modification of KRAS G12C measured by mass spectrometry (RapidFire/TOF or Q-Exactive)
Type: binding
Details: covalent binding to (modification of) KRAS G12C after a ten minute incubation period
In short: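 GDP-loaded KRAS G12C 1-169 (his-tagged) at 2 μM or 0.5 μM in 20 mM Hepes, 150 mM NaCl, 1 mM MgCl2, incubated with compound at 100, 30 or 10 μM at room temperature for 10 min, 30 min, 2 h or 24 h, then quenched with formic acid. Intact-protein LC-MS, deconvolved; percent modification from modified versus unmodified protein.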

SMILES | Binding %
C=CC(=O)N1C[C@H](C)N(c2nc(OC[C@H]3CCN(C)C3)nc3c(F)c(-c4c(C)ccc5cnn(C)c45)c(Cl)cc23)C[C@H]1C [Compound 196, 1-((2R,5S)-4-(6-chloro-7-(1,6-dimethyl-1H-indazol-7-yl)-8-fluoro-2-(((S)-1-methylpyrrolidin-3-yl)methoxy)quinazolin-4-yl)-2,5-dimethylpiperazin-1-yl)prop-2-en-1-one] | ++ (++ indicates binding activity from 50 to 80%)
C=CC(=O)N1C[C@H](C)N(c2nc(OC[C@@H]3C[C@H](OC)CN3C)nc3c(F)c(-c4c(C)ccc5cnn(C)c45)c(Cl)cc23)C[C@H]1C [Compound 197, 1-((2R,5S)-4-(6-chloro-7-(1,6-dimethyl-1H-indazol-7-yl)-8-fluoro-2-(((2S,4S)-4-methoxy-1-methylpyrrolidin-2-yl)methoxy)quinazolin-4-yl)-2,5-dimethylpiperazin-1-yl)prop-2-en-1-one] | +++ (+++ indicates binding activity greater than 80%)
C=CC(=O)N1C[C@H](C)N(c2nc(OC[C@H]3CCN(C)C3)nc3c(F)c(-c4c(C)ccc5cnn(C6CC6)c45)c(Cl)cc23)C[C@H]1C [Compound 198, 1-((2R,5S)-4-(6-chloro-7-(1-cyclopropyl-6-methyl-1H-indazol-7-yl)-8-fluoro-2-(((S)-1-methylpyrrolidin-3-yl)methoxy)quinazolin-4-yl)-2,5-dimethylpiperazin-1-yl)prop-2-en-1-one] | ++ (++ indicates binding activity from 50 to 80%)
C=CC(=O)N1C[C@H](C)N(c2nc(OC[C@@H]3C[C@H](OC)CN3C)nc3c(F)c(-c4c(C)ccc5cnn(C6CC6)c45)c(Cl)cc23)C[C@H]1C [Compound 199, 1-((2R,5S)-4-(6-chloro-7-(1-cyclopropyl-6-methyl-1H-indazol-7-yl)-8-fluoro-2-(((2S,4S)-4-methoxy-1-methylpyrrolidin-2-yl)methoxy)quinazolin-4-yl)-2,5-dimethylpiperazin-1-yl)prop-2-en-1-one] | +++ (+++ indicates binding activity greater than 80%)
C=CC(=O)N1C[C@H](C)N(c2nc(N3CC(N(C)C)C3)nc3c(F)c(-c4c(F)ccc5cnn(C6CC6)c45)c(Cl)cc23)C[C@H]1C [Compound 200, 1-((2R,5S)-4-(6-chloro-7-(1-cyclopropyl-6-fluoro-1H-indazol-7-yl)-2-(3-(dimethylamino)azetidin-1-yl)-8-fluoroquinazolin-4-yl)-2,5-dimethylpiperazin-1-yl)prop-2-en-1-one] | + (+ indicates binding activity greater than 0% and up to 50%)
C=CC(=O)N1C[C@H](C)N(c2nc(N3CC(N(C)C)C3)nc3c(F)c(-c4c(C)ccc5ccn(C)c45)c(Cl)cc23)C[C@H]1C [Compound 202, 1-((2R,5S)-4-((S)-6-chloro-7-(1,6-dimethyl-1H-indol-7-yl)-2-(3-(dimethylamino)azetidin-1-yl)-8-fluoroquinazolin-4-yl)-2,5-dimethylpiperazin-1-yl)prop-2-en-1-one] | + (+ indicates binding activity greater than 0% and up to 50%)
C=CC(=O)N1C[C@H](C)N(c2nc(N3CC(N(C)C)C3)nc3c(F)c(-c4c(C)ccc5ccn(C)c45)c(Cl)cc23)C[C@H]1C [Compound 203, 1-((2R,5S)-4-((R)-6 chloro-7-(1,6-dimethyl-1H-indol-7-yl)-2-(3-(dimethylamino)azetidin-1-yl)-8-fluoroquinazolin-4-yl)-2,5-dimethylpiperazin-1-yl)prop-2-en-1-one] | +++ (+++ indicates binding activity greater than 80%)
C=CC(=O)N1C[C@H](C)N(c2nc(OCC(C)(C)N(C)C)nc3c(F)c(-c4c(C)ccc5cnn(C)c45)c(Cl)cc23)C[C@H]1C [Compound 205, 1-((2R,5S)-4-(6-chloro-7-(1,6-dimethyl-1H-indazol-7-yl)-2-(2-(dimethylamino)-2-methylpropoxy)-8-fluoroquinazolin-4-yl)-2,5-dimethylpiperazin-1-yl)prop-2-en-1-one] | +++ (+++ indicates binding activity greater than 80%)
C=CC(=O)N1C[C@H](C)N(c2nc(N3CC(NC)C3)nc3c(F)c(-c4c(C)ccc5[nH]nc(C6CC6)c45)c(Cl)cc23)C[C@H]1C [Compound 209, 1-((2R,5S)-4-((R)-6-chloro-7-(3-cyclopropyl-5-methyl-1H-indazol-4-yl)-8-fluoro-2-(3-(methylamino)azetidin-1-yl)quinazolin-4-yl)-2,5-dimethylpiperazin-1-yl)prop-2-en-1-one] | +++ (+++ indicates binding activity greater than 80%)
[2H]C([2H])([2H])N(C1CN(c2nc(N3C[C@@H](C)N(C(=O)C=C)C[C@@H]3C)c3cc(Cl)c(-c4c(C)ccc5cnn(C6CC6)c45)c(F)c3n2)C1)C([2H])([2H])[2H] [Compound 213, 1-((2R,5S)-4-((S)-6-chloro-7-(1-cyclopropyl-6-methyl-1H-indazol-7-yl)-2-(3-(di-perdeuteromethylamino)azetidin-1-yl)-8-fluoroquinazolin-4-yl)-2,5-dimethylpiperazin-1-yl)prop-2-en-1-one] | + (+ indicates binding activity greater than 0% and up to 50%)
[2H]C([2H])([2H])N(C1CN(c2nc(N3C[C@@H](C)N(C(=O)C=C)C[C@@H]3C)c3cc(Cl)c(-c4c(C)ccc5cnn(C6CC6)c45)c(F)c3n2)C1)C([2H])([2H])[2H] [Compound 214, 1-((2R,5S)-4-((R)-6-chloro-7-(1-cyclopropyl-6-methyl-1H-indazol-7-yl)-2-(3-(di-perdeuteromethylamino)azetidin-1-yl)-8-fluoroquinazolin-4-yl)-2,5-dimethylpiperazin-1-yl)prop-2-en-1-one] | +++ (+++ indicates binding activity greater than 80%)
C=CC(=O)N1C[C@H](C)N(c2nc(OCC(C)(C)N(C)C)nc3c(F)c(-c4c(C)ccc5cnn(C6CC6)c45)c(Cl)cc23)C[C@H]1C [Compound 215, 1-((2R,5S)-4-(6-chloro-7-(1-cyclopropyl-6-methyl-1H-indazol-7-yl)-2-(2-(dimethylamino)-2-methylpropoxy)-8-fluoroquinazolin-4-yl)-2,5-dimethylpiperazin-1-yl)prop-2-en-1-one] | +++ (+++ indicates binding activity greater than 80%)
C=CC(=O)N1C[C@H](C)N(c2nc(OC3CCOC3)nc3c(F)c(-c4c(C)ccc5cnn(C)c45)c(Cl)cc23)C[C@H]1C (stereo partly drawn) [Compound 216, 1-((2R,5S)-4-(6-chloro-7-(1,6-dimethyl-1H-indazol-7-yl)-8-fluoro-2-(tetrahydrofuran-3-yloxy)quinazolin-4-yl)-2,5-dimethylpiperazin-1-yl)prop-2-en-1-one] | ++ (++ indicates binding activity from 50 to 80%)
C=CC(=O)N1C[C@H](C)N(c2nc(OC3CCCOC3)nc3c(F)c(-c4c(C)ccc5cnn(C)c45)c(Cl)cc23)C[C@H]1C (stereo partly drawn) [Compound 225, 1-((2R,5S)-4-(6-chloro-7-(1,6-dimethyl-1H-indazol-7-yl)-8-fluoro-2-(tetrahydro-2H-pyran-3-yloxy)quinazolin-4-yl)-2,5-dimethylpiperazin-1-yl)prop-2-en-1-one] | ++ (++ indicates binding activity from 50 to 80%)
C=CC(=O)N1C[C@H](C)N(c2nc(OCC(C)(C)N(C)C)nc3c(F)c(-c4c(C)ccc5[nH]nc(C)c45)c(Cl)cc23)C[C@H]1C [Compound 226, 1-((2R,5S)-4-(6-chloro-7-(3,5-dimethyl-1H-indazol-4-yl)-2-(2-(dimethylamino)-2-methylpropoxy)-8-fluoroquinazolin-4-yl)-2,5-dimethylpiperazin-1-yl)prop-2-en-1-one] | ++ (++ indicates binding activity from 50 to 80%)
C=CC(=O)N1C[C@H](C)N(c2nc(N3CC(N(C)C)C3)nc3c(F)c(-c4c(F)ccc5ccn(C)c45)c(Cl)cc23)C[C@H]1C [Compound 229, 1-((2R,5S)-4-(6-chloro-2-(3-(dimethylamino)azetidin-1-yl)-8-fluoro-7-(6-fluoro-1-methyl-1H-indol-7-yl)quinazolin-4-yl)-2,5-dimethylpiperazin-1-yl)prop-2-en-1-one] | +++ (+++ indicates binding activity greater than 80%)
C=CC(=O)N1C[C@H](C)N(c2nc(O[C@H](C)CN(C)C)nc3c(F)c(-c4c(C)ccc5cnn(C)c45)c(Cl)cc23)C[C@H]1C [Compound 230, 1-((2R,5S)-4-(6-chloro-7-(1,6-dimethyl-1H-indazol-7-yl)-2-((R)-1-(dimethylamino)propan-2-yloxy)-8-fluoroquinazolin-4-yl)-2,5-dimethylpiperazin-1-yl)prop-2-en-1-one] | ++ (++ indicates binding activity from 50 to 80%)
C=CC(=O)N1C[C@H](C)N(c2nc(O[C@H](C)CN(C)C)nc3c(F)c(-c4c(C)ccc5[nH]nc(C6CC6)c45)c(Cl)cc23)C[C@H]1C [Compound 231, 1-((2R,5S)-4-(6-chloro-7-(3-cyclopropyl-5-methyl-1H-indazol-4-yl)-2-((R)-1-(dimethylamino)propan-2-yloxy)-8-fluoroquinazolin-4-yl)-2,5-dimethylpiperazin-1-yl)prop-2-en-1-one] | ++ (++ indicates binding activity from 50 to 80%)
C=CC(=O)N1C[C@H](C)N(c2nc(O[C@H](C)CN(C)C)nc3c(F)c(-c4c(C)ccc5[nH]nc(C)c45)c(Cl)cc23)C[C@H]1C [Compound 232, 1-((2R,5S)-4-(6-chloro-7-(3,5-dimethyl-1H-indazol-4-yl)-2-((R)-1-(dimethylamino)propan-2-yloxy)-8-fluoroquinazolin-4-yl)-2,5-dimethylpiperazin-1-yl)prop-2-en-1-one] | ++ (++ indicates binding activity from 50 to 80%)
C=CC(=O)N1C[C@H](C)N(c2nc(C#CCN(C)C)nc3c(F)c(-c4c(C)ccc5cnn(C)c45)c(Cl)cc23)C[C@H]1C [Compound 233, 1-((2R,5S)-4-(6-chloro-7-(1,6-dimethyl-1H-indazol-7-yl)-2-(3-(dimethylamino)prop-1-ynyl)-8-fluoroquinazolin-4-yl)-2,5-dimethylpiperazin-1-yl)prop-2-en-1-one] | +++ (+++ indicates binding activity greater than 80%)
